Test results reported in patent US20230017045A1, “PYRIDINE AND PYRIMIDINE CARBOXYLATE HERBICIDES AND METHODS OF USE THEREOF” (Dow AgroSciences LLC, priority 2017, published 2023).
Where two headings read alike, the source gives them in different places.

Test system: test plant species
Experiment: Post-emergent herbicidal activity test (greenhouse, foliar spray, visual growth reduction)
Assay type: in vivo
Conditions: post-emergence, 336 h, 140 g ai/ha
In short: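 Visual percent injury (0-100) rated 14 d after treatment, relative to nontreated and solvent-blank plants. Test plants at first or second true leaf stage received an overhead track-sprayer application at 187 L/ha. Compounds were formulated in aqueous acetone/DMSO carrier containing crop oil concentrate and X-77 surfactant.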

[1] = ECHCG: barnyardgrass (Echinochloa crus-galli), 14 days after application, read-out: Visual Growth Reduction (%) 14 Days After Application, ECHCG
[2] = IPOHE: ivy-leaf morning glory (Ipomoea hederacea), 14 days after application, read-out: Visual Growth Reduction (%) 14 Days After Application, IPOHE
[3] = KCHSC: kochia (Bassia scoparia), 14 days after application, read-out: Visual Growth Reduction (%) 14 Days After Application, KCHSC
[4] = ORYSA: rice (Oryza sativa), 14 days after application, read-out: Visual Growth Reduction (%) 14 Days After Application, ORYSA
[5] = SETFA: giant foxtail (Setaria faberi), 14 days after application, read-out: Visual Growth Reduction (%) 14 Days After Application, SETFA
[6] = SORVU: grain sorghum (Sorghum vulgare), 14 days after application, read-out: Visual Growth Reduction (%) 14 Days After Application, SORVU
[7] = STEME: common chickweed (Stellaria media), 14 days after application, read-out: Visual Growth Reduction (%) 14 Days After Application, STEME
[8] = TRZAS: wheat, spring (Triticum aestivum), 14 days after application, read-out: Visual Growth Reduction (%) 14 Days After Application, TRZAS
[9] = blackgrass (Alopecurus myosuroides), 14 Days After Application, read-out: Visual Growth Reduction (%) ALOMY
[10] = canada thistle (Cirsium arvense), 14 Days After Application, read-out: Visual Growth Reduction (%) CIRAR
[11] = crabgrass (Digitaria sanguinalis), 14 Days After Application, read-out: Visual Growth Reduction (%) DIGSA
[12] = lambsquarters (Chenopodium album), 14 Days After Application, read-out: Visual Growth Reduction (%) CHEAL
[13] = redroot pigweed (Amaranthus retroflexus), 14 Days After Application, read-out: Visual Growth Reduction (%) AMARE
[14] = wild oat (Avena fatua), 14 Days After Application, read-out: Visual Growth Reduction (%) AVEFA
[15] = yellow nutsedge (Cyperus esculentus), 14 Days After Application, read-out: Visual Growth Reduction (%) CYPES
[16] = ALOMY: blackgrass (Alopecurus myosuroides), 14 days after application, read-out: Visual Growth Reduction (%) 14 Days After Application, ALOMY
[17] = AMARE: redroot pigweed (Amaranthus retroflexus), 14 days after application, read-out: Visual Growth Reduction (%) 14 Days After Application, AMARE
[18] = AVEFA: wild oat (Avena fatua), 14 days after application, read-out: Visual Growth Reduction (%) 14 Days After Application, AVEFA
[19] = CHEAL: lambsquarters (Chenopodium album), 14 days after application, read-out: Visual Growth Reduction (%) 14 Days After Application, CHEAL
[20] = CIRAR: canada thistle (Cirsium arvense), 14 days after application, read-out: Visual Growth Reduction (%) 14 Days After Application, CIRAR
[21] = CYPES: yellow nutsedge (Cyperus esculentus), 14 days after application, read-out: Visual Growth Reduction (%) 14 Days After Application, CYPES
[22] = DIGSA: crabgrass (Digitaria sanguinalis), 14 days after application, read-out: Visual Growth Reduction (%) 14 Days After Application, DIGSA

| Structure (SMILES) | pest or weed control at 140 g/ha [1] [%] | pest or weed control at 140 g/ha [2] [%] | pest or weed control at 140 g/ha [3] [%] | pest or weed control at 140 g/ha [4] [%] | pest or weed control at 140 g/ha [5] [%] | pest or weed control at 140 g/ha [6] [%] | pest or weed control at 140 g/ha [7] [%] | pest or weed control at 140 g/ha [8] [%] | pest or weed control at 140 g/ha [9] [%] | pest or weed control at 140 g/ha [10] [%] | pest or weed control at 140 g/ha [11] [%] | pest or weed control at 140 g/ha [12] [%] | pest or weed control at 140 g/ha [13] [%] | pest or weed control at 140 g/ha [14] [%] | pest or weed control at 140 g/ha [15] [%] | pest or weed control at 140 g/ha [16] [%] | pest or weed control at 140 g/ha [17] [%] | pest or weed control at 140 g/ha [18] [%] | pest or weed control at 140 g/ha [19] [%] | pest or weed control at 140 g/ha [20] [%] | further results |
| --- | --- | --- | --- | --- | --- | --- | --- | --- | --- | --- | --- | --- | --- | --- | --- | --- | --- | --- | --- | --- | --- |
| COC(=O)c1cc2c(c(-c3ccc(Cl)c(C(=O)OC)n3)c1)OC(F)(F)O2 [F245, Methyl 3-chloro-6-(2,2-difluoro-6-(methoxycarbonyl)benzo[d][1,3]dioxol-4-yl)picolinate] | 0 to 29 | 85 to 94 | 0 to 29 | 0 to 29 | 0 to 29 | 75 to 84 | 0 to 29 | 0 to 29 | 0 to 29 | 0 to 29 | 0 to 29 | 85 to 94 | 0 to 29 | 0 to 29 | 45 to 59 | – | – | – | – | – | – |
| O=C(O)c1nc(-c2cc3c(cc2Cl)OCO3)c(Cl)cc1Cl [F183, 3,5-Dichloro-6-(6-chlorobenzo[d][1,3]dioxol-5-yl)picolinic acid] | 0 to 29 | 75 to 84 | 0 to 29 | 0 to 29 | 0 to 29 | 0 to 29 | 0 to 29 | 0 to 29 | – | – | – | – | – | – | – | 0 to 29 | 60 to 74 | 0 to 29 | 0 to 29 | 30 to 44 | pest or weed control at 140 g/ha [21]: 0 to 29%; pest or weed control at 140 g/ha [22]: 0 to 29% |
| COC(=O)c1nc(-c2ccc(-c3ccc(F)cc3)cc2Cl)ccc1Cl [F25, methyl 3-chloro-6-(3-chloro-4′-fluoro-[1, 1′-biphenyl]-4-yl) picolinate] | 0 to 29 | 0 to 29 | 0 to 29 | 0 to 29 | 0 to 29 | 30 to 44 | 0 to 29 | 0 to 29 | – | – | – | – | – | – | – | 0 to 29 | 0 to 29 | 0 to 29 | 0 to 29 | 0 to 29 | pest or weed control at 140 g/ha [21]: 0 to 29%; pest or weed control at 140 g/ha [22]: 0 to 29% |
| COC(=O)c1nc(-c2cc(C(F)(F)F)ccc2Cl)ccc1Cl [F38, Methyl 3-chloro-6-(2-chloro-5-(trifluoromethyl)phenyl)picolinate] | 0 to 29 | 0 to 29 | 0 to 29 | 0 to 29 | 0 to 29 | 0 to 29 | 0 to 29 | 0 to 29 | – | – | – | – | – | – | – | 0 to 29 | 0 to 29 | 0 to 29 | 0 to 29 | 0 to 29 | pest or weed control at 140 g/ha [21]: 0 to 29%; pest or weed control at 140 g/ha [22]: 0 to 29% |
| COC(=O)c1nc(-c2cc(OC)c3c(c2)OCO3)c(F)cc1Cl [F231, Methyl 3-chloro-5-fluoro-6-(7-methoxybenzo[d] [1,3]dioxol-5-yl)picolinate] | 0 to 29 | 0 to 29 | 0 to 29 | 0 to 29 | 0 to 29 | 0 to 29 | 0 to 29 | 0 to 29 | 0 to 29 | 0 to 29 | 0 to 29 | 0 to 29 | 0 to 29 | 0 to 29 | 0 to 29 | – | – | – | – | – | – |
| COc1cc(C(F)(F)F)ccc1-c1nc(C(=O)OCc2ccccc2)c(Cl)cc1F [F363, Benzyl 3-chloro-5-fluoro-6-(2-methoxy-4-(trifluoromethyl)phenyl)picolinate] | 95 to 100 | 95 to 100 | 75 to 84 | 30 to 44 | 85 to 94 | 95 to 100 | 30 to 44 | 75 to 84 | 0 to 29 | 85 to 94 | 0 to 29 | 95 to 100 | 95 to 100 | 85 to 94 | 0 to 29 | – | – | – | – | – | – |
| C#Cc1cc(C(F)(F)F)cc(Cl)c1-c1ccc(Cl)c(C(=O)OC)n1 [F239, methyl 3-chloro-6-(2-chloro-6-ethynyl-4-(trifluoromethyl)phenyl)picolinate] | 0 to 29 | 75 to 84 | 0 to 29 | 0 to 29 | 0 to 29 | 60 to 74 | 0 to 29 | 0 to 29 | 0 to 29 | 0 to 29 | 0 to 29 | 30 to 44 | 0 to 29 | 0 to 29 | 0 to 29 | – | – | – | – | – | – |
| C=Cc1cc(-c2nc(C(=O)OC)c(Cl)cc2F)c(OC)c2c1OC(F)(F)O2 [F372, Methyl 3-chloro-6-(2,2-difluoro-4-methoxy-7-vinylbenzo[d][1,3]dioxol-5-yl)-5-fluoropicolinate] | 0 to 29 | 95 to 100 | 0 to 29 | 0 to 29 | 0 to 29 | 30 to 44 | 0 to 29 | 0 to 29 | 0 to 29 | 0 to 29 | 0 to 29 | 0 to 29 | 45 to 59 | 0 to 29 | 0 to 29 | – | – | – | – | – | – |
| COC(=O)c1nc(-c2ccc(C(F)(F)F)c(C)c2Cl)c(F)cc1Cl [F339, Methyl 3-chloro-6-(2-chloro-3-methyl-4-(trifluoromethyl)phenyl)-5-fluoropicolinate] | 0 to 29 | 95 to 100 | 85 to 94 | 0 to 29 | 0 to 29 | 60 to 74 | 0 to 29 | 0 to 29 | 0 to 29 | – | 0 to 29 | 95 to 100 | 95 to 100 | 0 to 29 | 60 to 74 | – | – | – | – | – | – |
| COC(=O)c1nc(-c2ccc(OC(F)(F)F)cc2OC)c(F)cc1Cl [F215, Methyl 3-chloro-5-fluoro-6-(2-methoxy-4-(trifluoromethoxy)phenyl)picolinate] | 85 to 94 | 95 to 100 | 75 to 84 | 0 to 29 | 95 to 100 | 95 to 100 | 30 to 44 | 45 to 59 | 0 to 29 | 85 to 94 | 45 to 59 | 85 to 94 | 85 to 94 | 60 to 74 | 0 to 29 | – | – | – | – | – | – |
